The values below are quoted from earlier work in patent US6399099B1, “Effervescent composition with dry extract of ginkgo biloba” (Dr. Willmar Schwabe GmbH & Co., priority 1995, dated 2002).

For this data set the following is noted: neutral or slightly basic aqueous medium.

On to `CC(C)(C)[C@]1(O)CC2OC(=O)CC23C(=O)OC2OC(=O)[C@H](O)C231` (stereo partly shown) [bilobalide], for which the “stability in aqueous medium” value is on record as “not stable”.
